# Data reported in PubChem BioAssay AID1199 (EPA DSSTox, 2008).
# Calls of active or inactive are those of the source.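 How the source made its calls: active means a tumour-causing dose and a tumour site recorded for mice in at least one sex group; inconclusive means only government mouse studies exist and were judged inadequate; inactive means mouse studies exist but none gave tumours.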
# Test system: mouse carcinogenicity bioassay, TD50 from CPDB
# Experiment: DSSTox (CPDBAS) Carcinogenic Potency Database Summary Mouse Bioassay Results
# Conditions: TD50_Mouse_Note: no positive results; TargetSites_Mouse_Female: no positive results
# From the text: The Carcinogenic Potency Database (CPDB) is a unique and widely used international resource of the results of over 6500 chronic, long-term animal cancer tests on over 1500 chemical substances. The CPDB provides easy access to the bioassay literature, with qualitative and quantitative analyses of both positive and negative experiments that have been published over the past 50 years in the general literature and by the National Cancer Institute/National Toxicology Program. The CPDB standardizes the diverse literature of cancer bioassays that vary widely in protocol, histopathological examination and nomenclature, and in the published author's choices of what information to provide in their papers. Results are reported in the CPDB for tests in rats, mice, hamsters, dogs, and nonhuman primates, and are based on the most positive result among all experiments for each sex-species. The DSSTox CPDBAS (all species) file incorporates data from the CPDB Summary Tables for the full list of over 1500 chemical substances tested in at least one species. Summary bioassay results for Mouse (TD50, tumor sites, male, female, both sexes) are provided in the CPDB Summary Tables and the DSSTox CPDBAS file for over 1000 chemical substances.
# TD50 is a standardized quantitative measure of carcinogenic potency (analogous to an LD50) and is reported in the CPDB Summary Table for each species. Activity Score for actives is computed by mapping of LOG10 (1/TD50_Mouse_mmol) activity values spanning range [MIN, MAX] onto Integer 1-100 Activity Score range, where 100 is highest potency and 1 is lowest: Activity Score = 100 * INTEGER[(log10(1/Activity) - MIN)/(MAX […] MIN)]. If activity is reported but no TD50_Mouse_mmol value is computed, such as for a mixture, the Activity Score is assigned the activity value "50". […] Target sites are reported for each sex-species group with a positive result in the CPDB on the basis of a positive author's opinion for the particular site, using all results from both the general literature and NCI/NTP bioassays. If a chemical has two or more target sites listed, the results may be from different experiments, and a single site may be a target organ in more than one experiment, as well. Blank entry in TargetSites field indicates no results reported.
row,SMILES,outcome
1,CCCCN(CC)C(=O)SCCC,inactive; no positive results
2,CN=C(NC#N)NCCSCc1nc[nH]c1C,inactive
3,ClC1C2(Cl)C3C4C5OC5C5C4C1(Cl)C(Cl)(C53)C2(Cl)Cl (configuration not stated),inactive; no positive results
4,Nc1c(Cl)cc([N+](=O)[O-])cc1Cl,inactive; no positive results
5,O=S(=O)(c1ccc(Cl)cc1)c1cc(Cl)c(Cl)cc1Cl,inactive; no positive results
6,CCN(Cc1cccc(S(=O)(=O)O)c1)c1ccc(C(=C2C=CC(=[N+](CC)Cc3cccc(S(=O)(=O)[O-])c3)C=C2)c2ccccc2)cc1,inactive; no positive results
7,Cc1cc(O)c(C(C)(C)C)cc1Sc1cc(C(C)(C)C)c(O)cc1C,inactive; no positive results
8,CN(C)C(=O)NC1CC2CC1C1CCCC21 (configuration not stated),inactive; no positive results
9,OC[P+](CO)(CO)CO,inactive; no positive results
10,CC1=CC(=O)NS(=O)(=O)O1,inactive; no positive results
11,OC[C@H]1O[C@@](CO)(O[C@H]2O[C@H](CO)[C@@H](O)[C@H](O)[C@H]2O)[C@@H](O)[C@@H]1O,inactive; no positive results
12,Nc1ccc(N)c(Cl)c1,inactive; no positive results
13,O.O.O.O.O=C([O-])CC(O)(CC(=O)[O-])C(=O)[O-].[Fe+3],inactive; no positive results
14,Cn1cc(OCC(O)CNC(C)(C)C)c2ccccc2c1=O (configuration not stated),inactive; no positive results
15,Cc1c(COC(=O)C2C(/C=C(\Cl)C(F)(F)F)C2(C)C)cccc1-c1ccccc1 (configuration not stated),inactive; no positive results
16,N[C@@H](Cc1c[nH]c2ccccc12)C(=O)O,inactive; no positive results

row,SMILES,outcome
1,Nc1ccc2ccccc2c1S(=O)(=O)O,inactive; no positive results
2,CCc1nc(N)nc(N)c1-c1ccc(Cl)cc1,inactive; ntp bioassay inadequate
3,CC(=O)OC[C@H]1O[C@H](O[C@]2(COC(C)=O)O[C@H](COC(=O)C(C)C)[C@@H](OC(=O)C(C)C)[C@@H]2OC(=O)C(C)C)[C@H](OC(=O)C(C)C)[C@@H](OC(=O)C(C)C)[C@@H]1OC(=O)C(C)C,inactive; no positive results
4,CCNC(=S)NCC,inactive; no positive results
5,Cc1noc(NS(=O)(=O)c2ccc(N)cc2)c1C,inactive; no positive results
6,CCN(CC)C(=O)c1cccc(C)c1,inactive; no positive results
7,CCc1ccc(C(c2ccc(CC)cc2)C(Cl)Cl)cc1,inactive; no positive results
8,O,inactive; no positive results
9,CN(C)CCC(c1ccc(Cl)cc1)c1ccccn1 (configuration not stated),inactive; no positive results
10,S=C(S)NCCNC(=S)S,inactive; no positive results
11,N#CC(c1ccccc1)c1ccccc1,inactive; no positive results
12,CCOP(=S)(OCC)Oc1ccc([N+](=O)[O-])cc1,inactive; no positive results
13,Clc1ccc2c(c1)C(c1ccccc1)=NCc1nncn1-2,inactive; no positive results
14,O1[As]2O[As]3O[As]1O[As](O2)O3,inactive; no positive results
15,O=C(O)c1ccccc1-c1c2cc(I)c(=O)c(I)c-2oc2c(I)c(O)c(I)cc12,inactive; no positive results

# Same assay, conditions: TD50_Mouse_Note: positive test results only by intraperitoneal or intravenous injection; TD50 is harmonic mean of more than one positive; TargetSites_Mouse_Female: hematopoietic system; lung; nervous system; uterus
row,SMILES,Potency [mmol/kg/day]
1,CNNCc1ccc(C(=O)NC(C)C)cc1,0.00216

# Same assay, conditions: TD50_Mouse_Note: positive test results only by intraperitoneal or intravenous injection; TD50 is harmonic mean of more than one positive; TargetSites_Mouse_Female: liver; vascular system
row,SMILES,Potency [mmol/kg/day]
1,C=COC(N)=O,0.00142

# Same assay, conditions: TargetSites_Mouse_Female: hematopoietic system
row,SMILES,Potency [mmol/kg/day]
1,Nc1nc(-c2ccc([N+](=O)[O-])cc2)cs1,0.045

# Same assay, conditions: TargetSites_Mouse_Female: liver
row,SMILES,Potency [mmol/kg/day]
1,Cc1ccc(N)cc1N,0.219

# Same assay, conditions: TargetSites_Mouse_Female: no positive results
row,SMILES,Potency [mmol/kg/day]
1,COc1nn(CSP(=S)(OC)OC)c(=O)s1,0.02
2,CC(COc1ccc(C(C)(C)C)cc1)OS(=O)OCCCl (configuration not stated),0.472
3,O=C1c2ccccc2-c2ccc3c4c(ccc1c24)-c1ccccc1C3=O,32.8

# Same assay, conditions: TargetSites_Mouse_Female: stomach
row,SMILES,Potency [mmol/kg/day]
1,Nc1nc(-c2ccc([N+](=O)[O-])o2)cs1,0.0373

# Same assay, conditions: TargetSites_Mouse_Female: thyroid gland
row,SMILES,Potency [mmol/kg/day]
1,CCc1cc(C(N)=S)ccn1,0.417

# Same assay, conditions: TargetSites_Mouse_Female: urinary bladder; vascular system
row,SMILES,Potency [mmol/kg/day]
1,Nc1ccc(Oc2ccc(Cl)cc2)cc1,1.58

# Same assay, conditions: TargetSites_Mouse_Female: vascular system
row,SMILES,Potency [mmol/kg/day]
1,Nc1ccccc1-c1ccccc1,5.45
